Assay results: the supplement of paper PMC10307832

Legend:
Test in all cases: relative viability (nuclei count vs DMSO), 5 days (fraction); higher = more cells survive
EHT 1864 + Alpelisib = compound: C1COCCN1CC2=CC(=O)C(=CO2)OCCCCCSC3=C4C=CC(=CC4=NC=C3)C(F)(F)F [EHT 1864] + Cc1nc(NC(=O)N2CCC[C@H]2C(N)=O)sc1-c1ccnc(C(C)(C)C(F)(F)F)c1 [Alpelisib] (partner 2 µM)
Outline: (§1)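 Relative viability equals treated-well nuclei counts divided by vehicle-well nuclei counts. Counts came from 4× images of lung cancer cell lines grown in 1536-well plates for 5 days after pin-tool dosing on the day after seeding. Dosing used one drug alone or a fixed anchor-drug dose plus five library-drug doses (not always all listed) in √10 steps, and values are medians of duplicate plates.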

EHT 1864 + Linsitinib = compound: C1COCCN1CC2=CC(=O)C(=CO2)OCCCCCSC3=C4C=CC(=CC4=NC=C3)C(F)(F)F [EHT 1864] + C[C@]1(O)C[C@@H](c2nc(-c3ccc4ccc(-c5ccccc5)nc4c3)c3c(N)nccn32)C1 [Linsitinib] (partner 1 µM)
Outline: as §1

EHT 1864 + Decitabine = compound: C1COCCN1CC2=CC(=O)C(=CO2)OCCCCCSC3=C4C=CC(=CC4=NC=C3)C(F)(F)F [EHT 1864] + Nc1ncn([C@H]2C[C@H](O)[C@@H](CO)O2)c(=O)n1 [Decitabine] (partner 2 µM)
Outline: as §1

EHT 1864 + Pictilisib = compound: C1COCCN1CC2=CC(=O)C(=CO2)OCCCCCSC3=C4C=CC(=CC4=NC=C3)C(F)(F)F [EHT 1864] + CS(=O)(=O)N1CCN(Cc2cc3nc(-c4cccc5[nH]ncc45)nc(N4CCOCC4)c3s2)CC1 [Pictilisib] (partner 1 µM)
Outline: as §1

Cell Line: NCI-H2126
- relative viability (EHT 1864 + Alpelisib; first compound 0.04 µM): 0.755
- relative viability (EHT 1864 + Alpelisib; first compound 0.1265 µM): 0.757
- relative viability (EHT 1864 + Alpelisib; first compound 0.4 µM): 0.718
- relative viability (EHT 1864 + Alpelisib; first compound 1.265 µM): 0.801
- relative viability (EHT 1864 + Alpelisib; first compound 4 µM): 0.748
- relative viability (EHT 1864 + Linsitinib; first compound 0.04 µM): 0.733
- relative viability (EHT 1864 + Linsitinib; first compound 0.1265 µM): 0.691
- relative viability (EHT 1864 + Linsitinib; first compound 0.4 µM): 0.746
- relative viability (EHT 1864 + Linsitinib; first compound 1.265 µM): 0.726
- relative viability (EHT 1864 + Linsitinib; first compound 4 µM): 0.72
- relative viability (EHT 1864 + Decitabine; first compound 0.04 µM): 0.652
- relative viability (EHT 1864 + Decitabine; first compound 0.1265 µM): 0.572
- relative viability (EHT 1864 + Decitabine; first compound 0.4 µM): 0.547
- relative viability (EHT 1864 + Decitabine; first compound 1.265 µM): 0.62
- relative viability (EHT 1864 + Decitabine; first compound 4 µM): 0.566
- relative viability (EHT 1864 + Pictilisib; first compound 0.04 µM): 0.53
- relative viability (EHT 1864 + Pictilisib; first compound 0.1265 µM): 0.44
- relative viability (EHT 1864 + Pictilisib; first compound 0.4 µM): 0.516
- relative viability (EHT 1864 + Pictilisib; first compound 1.265 µM): 0.521
- relative viability (EHT 1864 + Pictilisib; first compound 4 µM): 0.514

Cell Line: LXF-289
- relative viability (EHT 1864 + Alpelisib; first compound 0.04 µM): 1.1
- relative viability (EHT 1864 + Alpelisib; first compound 0.1265 µM): 1
- relative viability (EHT 1864 + Alpelisib; first compound 0.4 µM): 1
- relative viability (EHT 1864 + Alpelisib; first compound 1.265 µM): 0.968
- relative viability (EHT 1864 + Alpelisib; first compound 4 µM): 0.912
- relative viability (EHT 1864 + Linsitinib; first compound 0.04 µM): 0.926
- relative viability (EHT 1864 + Linsitinib; first compound 0.1265 µM): 0.929
- relative viability (EHT 1864 + Linsitinib; first compound 0.4 µM): 0.883
- relative viability (EHT 1864 + Linsitinib; first compound 1.265 µM): 0.898
- relative viability (EHT 1864 + Linsitinib; first compound 4 µM): 0.821
- relative viability (EHT 1864 + Decitabine; first compound 0.04 µM): 0.431
- relative viability (EHT 1864 + Decitabine; first compound 0.1265 µM): 0.351
- relative viability (EHT 1864 + Decitabine; first compound 0.4 µM): 0.388
- relative viability (EHT 1864 + Decitabine; first compound 1.265 µM): 0.385
- relative viability (EHT 1864 + Decitabine; first compound 4 µM): 0.361
- relative viability (EHT 1864 + Pictilisib; first compound 0.04 µM): 0.788
- relative viability (EHT 1864 + Pictilisib; first compound 0.1265 µM): 0.766
- relative viability (EHT 1864 + Pictilisib; first compound 0.4 µM): 0.755
- relative viability (EHT 1864 + Pictilisib; first compound 1.265 µM): 0.794
- relative viability (EHT 1864 + Pictilisib; first compound 4 µM): 0.727

Cell Line: NCI-H460
- relative viability (EHT 1864 + Alpelisib; first compound 0.04 µM): 0.427
- relative viability (EHT 1864 + Alpelisib; first compound 0.1265 µM): 0.57
- relative viability (EHT 1864 + Alpelisib; first compound 0.4 µM): 0.475
- relative viability (EHT 1864 + Alpelisib; first compound 1.265 µM): 0.444
- relative viability (EHT 1864 + Alpelisib; first compound 4 µM): 0.486
- relative viability (EHT 1864 + Linsitinib; first compound 0.04 µM): 0.76
- relative viability (EHT 1864 + Linsitinib; first compound 0.1265 µM): 0.603
- relative viability (EHT 1864 + Linsitinib; first compound 0.4 µM): 0.747
- relative viability (EHT 1864 + Linsitinib; first compound 1.265 µM): 0.624
- relative viability (EHT 1864 + Linsitinib; first compound 4 µM): 0.845
- relative viability (EHT 1864 + Decitabine; first compound 0.1265 µM): 0.405
- relative viability (EHT 1864 + Decitabine; first compound 0.4 µM): 0.495
- relative viability (EHT 1864 + Decitabine; first compound 1.265 µM): 0.43
- relative viability (EHT 1864 + Decitabine; first compound 4 µM): 0.255
- relative viability (EHT 1864 + Pictilisib; first compound 0.04 µM): 0.379
- relative viability (EHT 1864 + Pictilisib; first compound 0.1265 µM): 0.401
- relative viability (EHT 1864 + Pictilisib; first compound 0.4 µM): 0.365
- relative viability (EHT 1864 + Pictilisib; first compound 1.265 µM): 0.251
- relative viability (EHT 1864 + Pictilisib; first compound 4 µM): 0.345

Cell Line: NCI-H1395
- relative viability (EHT 1864 + Alpelisib; first compound 0.04 µM): 1.54
- relative viability (EHT 1864 + Alpelisib; first compound 0.1265 µM): 0.942
- relative viability (EHT 1864 + Alpelisib; first compound 0.4 µM): 1.01
- relative viability (EHT 1864 + Alpelisib; first compound 1.265 µM): 0.967
- relative viability (EHT 1864 + Alpelisib; first compound 4 µM): 1.38
- relative viability (EHT 1864 + Linsitinib; first compound 0.04 µM): 1.02
- relative viability (EHT 1864 + Linsitinib; first compound 0.1265 µM): 0.982
- relative viability (EHT 1864 + Linsitinib; first compound 0.4 µM): 0.957
- relative viability (EHT 1864 + Linsitinib; first compound 1.265 µM): 1.16
- relative viability (EHT 1864 + Linsitinib; first compound 4 µM): 1.02
- relative viability (EHT 1864 + Decitabine; first compound 0.04 µM): 0.722
- relative viability (EHT 1864 + Decitabine; first compound 0.1265 µM): 0.676
- relative viability (EHT 1864 + Decitabine; first compound 0.4 µM): 0.709
- relative viability (EHT 1864 + Decitabine; first compound 1.265 µM): 0.657
- relative viability (EHT 1864 + Decitabine; first compound 4 µM): 0.673
- relative viability (EHT 1864 + Pictilisib; first compound 0.04 µM): 0.66
- relative viability (EHT 1864 + Pictilisib; first compound 0.1265 µM): 0.557
- relative viability (EHT 1864 + Pictilisib; first compound 0.4 µM): 0.58
- relative viability (EHT 1864 + Pictilisib; first compound 1.265 µM): 0.59
- relative viability (EHT 1864 + Pictilisib; first compound 4 µM): 0.588

Cell Line: NCI-H358
- relative viability (EHT 1864 + Alpelisib; first compound 0.04 µM): 0.798
- relative viability (EHT 1864 + Alpelisib; first compound 0.4 µM): 0.877
- relative viability (EHT 1864 + Alpelisib; first compound 1.265 µM): 0.965
- relative viability (EHT 1864 + Alpelisib; first compound 4 µM): 0.837
- relative viability (EHT 1864 + Linsitinib; first compound 0.04 µM): 0.759
- relative viability (EHT 1864 + Linsitinib; first compound 0.4 µM): 0.738
- relative viability (EHT 1864 + Linsitinib; first compound 1.265 µM): 0.794
- relative viability (EHT 1864 + Linsitinib; first compound 4 µM): 0.639
- relative viability (EHT 1864 + Decitabine; first compound 0.04 µM): 0.238
- relative viability (EHT 1864 + Decitabine; first compound 0.1265 µM): 0.241
- relative viability (EHT 1864 + Decitabine; first compound 0.4 µM): 0.212
- relative viability (EHT 1864 + Decitabine; first compound 1.265 µM): 0.263
- relative viability (EHT 1864 + Decitabine; first compound 4 µM): 0.192
- relative viability (EHT 1864 + Pictilisib; first compound 0.04 µM): 0.349
- relative viability (EHT 1864 + Pictilisib; first compound 0.4 µM): 0.342
- relative viability (EHT 1864 + Pictilisib; first compound 1.265 µM): 0.315
- relative viability (EHT 1864 + Pictilisib; first compound 4 µM): 0.3

Cell Line: NCI-H2009
- relative viability (EHT 1864 + Alpelisib; first compound 0.04 µM): 1.16
- relative viability (EHT 1864 + Alpelisib; first compound 0.1265 µM): 1.13
- relative viability (EHT 1864 + Alpelisib; first compound 0.4 µM): 1.11
- relative viability (EHT 1864 + Alpelisib; first compound 1.265 µM): 1.12
- relative viability (EHT 1864 + Alpelisib; first compound 4 µM): 0.971
- relative viability (EHT 1864 + Linsitinib; first compound 0.04 µM): 1.15
- relative viability (EHT 1864 + Linsitinib; first compound 0.1265 µM): 1.2
- relative viability (EHT 1864 + Linsitinib; first compound 0.4 µM): 1.17
- relative viability (EHT 1864 + Linsitinib; first compound 1.265 µM): 1.24
- relative viability (EHT 1864 + Linsitinib; first compound 4 µM): 0.897
- relative viability (EHT 1864 + Decitabine; first compound 0.04 µM): 0.357
- relative viability (EHT 1864 + Decitabine; first compound 0.1265 µM): 0.356
- relative viability (EHT 1864 + Decitabine; first compound 0.4 µM): 0.354
- relative viability (EHT 1864 + Decitabine; first compound 1.265 µM): 0.382
- relative viability (EHT 1864 + Decitabine; first compound 4 µM): 0.412
- relative viability (EHT 1864 + Pictilisib; first compound 0.04 µM): 0.798
- relative viability (EHT 1864 + Pictilisib; first compound 0.1265 µM): 0.664
- relative viability (EHT 1864 + Pictilisib; first compound 0.4 µM): 0.852
- relative viability (EHT 1864 + Pictilisib; first compound 1.265 µM): 0.718
- relative viability (EHT 1864 + Pictilisib; first compound 4 µM): 0.761
